From US20240115555A1, “METHODS OF TREATING CANCER USING B-RAF INHIBITORS AND IMMUNE CHECKPOINT INHIBITORS” (Genentech, Inc., priority 2015, published 2024)

Key:
[1] = system: unresectable or metastatic melanoma; conditions: two Phase III studies; cited from earlier work
PD-L1 = experiment: Tissue samples stained for PD-L1 expression; type: in vivo, human; conditions: patient tissue samples, data not shown
From the text: (§1) Tissue samples were stained for CD8+ T-cells as well as PD-L1 expression. Treatment with vemurafenib alone increased immune tumor CD8+ T-cell infiltration (data not shown). Treatment with either vemurafenib alone or vemurafenib in combination with atezolizumab increased expression of PD-L1 on tumor cells as well as tumor-infiltrating immune cells (data not shown).

CD8+ T-cells = experiment: Tissue samples stained for CD8+ T-cells; type: in vivo, human; conditions: patient tissue samples, data not shown
From the text: as §1

[2] = system: metastatic melanoma with the BRAFV600E mutation; conditions: cited from earlier work
[3] = fumarate salt; cited from earlier work

Ipilimumab: humanized immunoglobulin (Ig)G1 monoclonal antibody that blocks cytotoxic T-lymphocyte-associated antigen 4 (CTLA-4)
median PFS [1]: 2.8 months
overall response rate [1]: 10.9%

CCCS(=O)(=O)Nc1ccc(F)c(C(=O)c2c[nH]c3ncc(-c4ccc(Cl)cc4)cc23)c1F [vemurafenib, propane-1-sulfonic acid {3-[5-(4-chlorophenyl)-1H-pyrrolo[2,3-b]pyridine-3-carbonyl]-2,4-difluoro-phenyl}-amide]
expression of PD-L1 on tumor cells as well as tumor-infiltrating immune cells (PD-L1): increased
immune tumor CD8+ T-cell infiltration (CD8+ T-cells): increased
improvement in PFS ([2]; compared with dacarbazine): 74%
reduction in the risk of death ([2]; compared with dacarbazine): 63%
hazard ratio for death ([2]; in favor of vemurafenib vs dacarbazine, median follow-up of 12.5 months): 0.70 (95% CI: 0.57, 0.87)
median OS ([2]; median follow-up of 12.5 months): 13.6 months
Response rates ([2]; previously untreated, BRAFV600E mutation): 48%
improvement in median OS ([2]; vs dacarbazine, median follow-up of 12.5 months): ~4 month

O=C(c1ccc(F)c(F)c1Nc1ccc(I)cc1F)N1CC(O)([C@@H]2CCCCN2)C1 [Cobimetinib, (S)-(3,4-difluoro-2-(2-fluoro-4-iodophenylamino)phenyl)(3-hydroxy-3-(piperidin-2-yl)azetidin-1-yl)methanone]
solubility [3]: pH dependent solubility
